The text below walks through data of article PMC7830743 (Journal of medicinal chemistry, 2020).

Data set [1] has as its system tumor LDH activity (A673 flank xenograft). Briefly: In vivo LDHA activity in A673 xenograft tumor mouse model. Conditions: single IV 50 mg/kg, A673 xenograft mice.
A short description of data set [2]: RLM stability assay, single time point. Conditions: single-point (15 min) measurement; >30 min is highest estimable.
For data set [3], the target named is LDHA with C-terminal HiBiT fusion tag (Homo sapiens, UniProt P00338). As to the kind of experiment: SplitLuc CETSA. It is filed as cell-based.
In data set [4] the test system is MiaPaCa-2 cells. As to the kind of experiment: Cellular lactate production assay in MiaPaCa-2 cells. It is filed as cell-based. Conditions: Homo sapiens, MIA PaCa-2, 0.5 h, read-out: MiaPaCa-2 cells lactate inh. IC50.
Data set [5] relates to MiaPaCa-2 cells. As to the kind of experiment: Cytotoxicity assay in MiaPaCa-2 cells. It is filed as cell-based. Conditions: Homo sapiens, MIA PaCa-2, 48 h, read-out: MiaPaCa-2 cells Cytotox. IC50.
The test system of data set [6] is A673 cells. As to the kind of experiment: Cellular lactate production assay in A673 cells. The format is cell-based, human. Conditions: Homo sapiens, A673, 0.5 h, read-out: A673 cells lactate inh. IC50.
Data set [7] relates to A673 cells. Briefly: Cytotoxicity assay in A673 cells. The format is cell-based, human. Conditions: Homo sapiens, A673, 48 h, read-out: A673 cells Cytotox. IC50.
The nature of data set [8]: Kinetic solubility assay. It is filed as physicochemical. Conditions: PBS buffer.
In data set [9] the target is LDHA (Homo sapiens, UniProt P00338). Briefly: Biochemical LDHA inhibition assay.
Data set [10] is described as follows: Mouse pharmacokinetic studies. It is filed as in vivo, CD1 mice. Conditions: male, CD1, mouse, plasma, iv, 10 mg/kg.

Consider `CCCC#Cc1cc(-c2nn(-c3nc(C(=O)O)cs3)c(CC3CC3)c2Cc2ccc(S(N)(=O)=O)c(F)c2)ccc1F` [Compound 14, 2-(5-(Cyclopropylmethyl)-3-(4-fluoro-3-(pent-1-yn-1-yl)phenyl)-4-(3-fluoro-4-sulfamoylbenzyl)-1H-pyrazol-1-yl)thiazole-4-carboxylic Acid], for which the “effect on LDH activity in tumors (in words)” value in data set [1] is reported as “less effects”. Further, the “RLM stability T1/2” value in [2] was “metabolized quickly”.

`CCCCC#Cc1cc(-c2nn(-c3nc(C(=O)O)cs3)c(CC3CC3)c2Cc2ccc(S(N)(=O)=O)c(F)c2)ccc1F` [Compound 15, 2-(5-(Cyclopropylmethyl)-3-(4-fluoro-3-(hex-1-yn-1-yl)phenyl)-4-(3-fluoro-4-sulfamoylbenzyl)-1H-pyrazol-1-yl)thiazole-4-carboxylic Acid]: in [2], the “RLM stability T1/2” value is recorded as “metabolized quickly”.

As to `CC1(C#Cc2cc(-c3nn(-c4nc(C(=O)O)cs4)c(CC4CC4)c3Cc3ccc(S(N)(=O)=O)c(F)c3)ccc2F)COC1` [Compound 26, 2-(5-(Cyclopropylmethyl)-3-(4-fluoro-3-((3-methyloxetan-3-yl)-ethynyl)phenyl)-4-(3-fluoro-4-sulfamoylbenzyl)-1H-pyrazol-1-yl)-thiazole-4-carboxylic Acid], the IC50 – broadly, the midpoint of a concentration-inhibition curve – in data set [3] turned out to be 84 nM; in [4], 898 nM; in [5], 1240 nM; in [6] it was 1050 nM; in [7], 1180 nM; in data set [9] it was 10 nM. For the same compound, in data set [8], the “aq solubility at pH 7.4” value is recorded as “significantly diminished”.

As to `NS(=O)(=O)c1ccc(Cc2c(-c3ccc(F)c(C#CC4(F)COC4)c3)nn(-c3nc(C(=O)O)cs3)c2CC2CC2)cc1F` [Compound 27, 2-(5-(Cyclopropylmethyl)-3-(4-fluoro-3-((3-fluorooxetan-3-yl)-ethynyl)phenyl)-4-(3-fluoro-4-sulfamoylbenzyl)-1H-pyrazol-1-yl)-thiazole-4-carboxylic Acid], the IC50 is 126 nM in data set [3]; 1050 nM in [4]; 2260 nM in data set [5]; 1320 nM in data set [6]; 2650 nM in [7]; 7 nM in data set [9].

Consider `NS(=O)(=O)c1ccc(Cc2c(-c3ccc(F)c(C#CC4(O)COC4)c3)nn(-c3nc(C(=O)O)cs3)c2CC2CC2)cc1F` [Compound 28, 2-(5-(Cyclopropylmethyl)-3-(4-fluoro-3-((3-hydroxyoxetan-3-yl)-ethynyl)phenyl)-4-(3-fluoro-4-sulfamoylbenzyl)-1H-pyrazol-1-yl)-thiazole-4-carboxylic Acid], for which the IC50 in [3] was 1500 nM; in [4] it was 4870 nM; in [5] it was 2990 nM; in data set [6], 12200 nM; in [7], 3590 nM; in data set [9], 6 nM.

`NS(=O)(=O)c1ccc(Cc2c(-c3ccc(F)c(C#CC4(F)CCOC4)c3)nn(-c3nc(C(=O)O)cs3)c2CC2CC2)cc1F` (stereo not drawn) [Compound 30, 2-(5-(Cyclopropylmethyl)-3-(4-fluoro-3-((3-fluorotetrahydrofuran-3-yl)ethynyl)phenyl)-4-(3-fluoro-4-sulfamoylbenzyl)-1H-pyrazol-1-yl)thiazole-4-carboxylic Acid]: the IC50 in data set [3] came to 201 nM; in data set [4], 867 nM; in data set [5], 882 nM; in data set [6] it was 1060 nM; in data set [7], 1050 nM; in [9], 1 nM. In data set [8], the “aq solubility at pH 7.4” value is listed as “significantly diminished”.

For the compound `NS(=O)(=O)c1ccc(Cc2c(-c3ccc(F)c(C#CC4(O)CCOC4)c3)nn(-c3nc(C(=O)O)cs3)c2CC2CC2)cc1F` (stereo not drawn) [Compound 31, 2-(5-(Cyclopropylmethyl)-3-(4-fluoro-3-((3-hydroxytetrahydrofuran-3-yl)ethynyl)phenyl)-4-(3-fluoro-4-sulfamoylbenzyl)-1H-pyrazol-1-yl)thiazole-4-carboxylic Acid], the IC50 in data set [3] amounted to 815 nM; in data set [4] it was 3870 nM; in data set [5], 1740 nM; in [6], 5940 nM; in data set [7], 2640 nM; in [9], 5 nM.

On to `NS(=O)(=O)c1ccc(Cc2c(-c3ccc(F)c(C#CCN4CCCC4)c3)nn(-c3nc(C(=O)O)cs3)c2CC2CC2)cc1F` [Compound 39, 2-(5-(Cyclopropylmethyl)-3-(4-fluoro-3-(3-(pyrrolidin-1-yl)prop-1-yn-1-yl)phenyl)-4-(3-fluoro-4-sulfamoylbenzyl)-1H-pyrazol-1-yl)-thiazole-4-carboxylic Acid], for which the “aq solubility at pH 7.4” value in data set [8] was “significantly diminished”.

With `Cc1cnc(C#Cc2cc(-c3nn(-c4nc(C(=O)O)cs4)c(CC4CC4)c3Cc3ccc(S(N)(=O)=O)c(F)c3)ccc2F)s1` [Compound 47, 2-(5-(Cyclopropylmethyl)-3-(4-fluoro-3-((5-methylthiazol-2-yl)-ethynyl)phenyl)-4-(3-fluoro-4-sulfamoylbenzyl)-1H-pyrazol-1-yl)-thiazole-4-carboxylic Acid], the clearance (as a rule, the volume of plasma or blood freed of the substance per unit of time) at 24 h in data set [10] is 128 mL/min/kg. The “effect on LDH activity in tumors (in words)” value in data set [1] was “less effects”. Also, the “aq solubility at pH 7.4” value in data set [8] is recorded as “significantly diminished”.

Consider `Cn1cncc1C#Cc1cc(-c2nn(-c3nc(C(=O)O)cs3)c(CC3CC3)c2Cc2ccc(S(N)(=O)=O)c(F)c2)ccc1F` [Compound 48, 2-(5-(Cyclopropylmethyl)-3-(4-fluoro-3-((1-methyl-1H-imidazole-5-yl)ethynyl)phenyl)-4-(3-fluoro-4-sulfamoylbenzyl)-1H-pyrazol-1-yl)thiazole-4-carboxylic Acid], for which the “aq solubility at pH 7.4” value in [8] was “significantly diminished”.

`Cc1nc(C#Cc2cccc(-c3nn(-c4nc(C(=O)O)cs4)c(CC4CC4)c3Cc3ccc(S(N)(=O)=O)c(F)c3)c2)cs1` [Compound 65, 2-(5-(Cyclopropylmethyl)-4-(3-fluoro-4-sulfamoylbenzyl)-3-(3-((2-methylthiazol-4-yl)ethynyl)phenyl)-1H-pyrazol-1-yl)thiazole-4-carboxylic Acid]: in [8], the “aq solubility at pH 7.4” value is listed as “significantly diminished”.

Turning to `Cc1cnc(C#Cc2cccc(-c3nn(-c4nc(C(=O)O)cs4)c(CCC4CC4)c3Cc3ccc(S(N)(=O)=O)c(F)c3)c2)s1` [Compound 80, 2-(5-(2-Cyclopropylethyl)-4-(3-fluoro-4-sulfamoylbenzyl)-3-(3((5-methylthiazol-2-yl)ethynyl)phenyl)-1H-pyrazol-1-yl)thiazole-4-carboxylic Acid], the “aq solubility at pH 7.4” value in [8] is recorded as “significantly diminished”.

Turning to `Cc1ccc(C#Cc2cccc(-c3nn(-c4nc(C(=O)O)cs4)c(C4CC45CC5)c3Cc3ccc(S(N)(=O)=O)c(F)c3)c2)s1` (stereo not drawn) [Compound 87, 2-(4-(3-Fluoro-4-sulfamoylbenzyl)-3-(3-((5-methylthiophen-2-yl)ethynyl)phenyl)-5-(spiro[2.2]pentan-1-yl)-1H-pyrazol-1-yl)-thiazole-4-carboxylic Acid], the half-inhibitory concentration (IC50) was 175 nM in data set [3]; 459 nM in data set [4]; 469 nM in [5]; 485 nM in data set [6]; 526 nM in data set [7]; 122 nM in data set [9].
